From patent publication US10273241B2 (President and Fellows of Harvard College, priority 2013, dated 2019) come the findings set out here.

Like-named read-outs stand apart in the source and are kept apart here.

Assay [1] has as its system MV4;11. Briefly: Cell growth assay, MV4;11 AML cell line. The assay is classed as cell-based, human. The method, then: (§1) For all other cell lines, compounds were serially diluted in medium and dispensed in triplicate in 96-well plates (0.1% DMSO final for assay) followed by the addition of exponentially growing cells at densities ranging from 5,000 to 30,000 cells/well. Cells were also seeded into 2 additional control wells containing vehicle (0.1% DMSO). […] To determine the estimated cell number in each well, cells that were counted in the control well were diluted 3-fold for an 8-point dilution series, and transferred to 384-well plates in duplicate, 20 μL per well. Cells in all other wells were diluted 4-fold and transferred to 384-well plates in duplicate, 20 μL per well. 20 μL of CellTiter-Glo (Promega) was subsequently added to all wells and luminescence was detected using a SPECTRAmax M3. The control well dilution series was fit to a linear regression and used as a standard for calculating the estimated cell number for each well. For days 7 and 10, total estimated cell number represents the split-adjusted theoretical cell number.

Assay [2] deals with MOLM-14. Briefly: Cell growth assay, MOLM-14 AML cell line. The class given is cell-based, human. As to the method:
as §1

[3] abbreviates: day 10, cells passaged, fresh compound added on days 3 and 7, read-out: MV 4;11 GI50 day 10.
[4] abbreviates: day 10, cells passaged, fresh compound added on days 3 and 7, read-out: MOL M14 G150 day 10.
The mark [5] stands for this setting: Homo sapiens, MV4-11, 240 h, day 10, cells passaged, fresh compound added on days 3 and 7, read-out: MV 4;11 GI50 day 10.
Where [6] appears, read: Homo sapiens, MOLM-14, 240 h, day 10, cells passaged, fresh compound added on days 3 and 7, read-out: MOL M14 G150 day 10.
The mark [7] stands for this setting: Homo sapiens, MV4-11, 168 h, day 7, printed as symbol, read-out: MV4;11 GI50 day 7.
Where [8] appears, read: Homo sapiens, MOLM-14, 168 h, day 7, printed as symbol, read-out: MOL M14 GI50 day 7.

Turning to `CO[C@@H]1CCC2=CC3=CC[C@]4(C)[C@@H](c5ccc6ccncc6c5)CC[C@H]4[C@@]34CCC2(C1)O4` [64A, α-methylether], the GI50 in assay [1] (setting [3]) stood at 15 nM; in assay [2] (setting [4]) it was 45 nM.

As for `CC1(N[C@H]2CCC3=CC4=CC[C@]5(C)C(c6ccc7ccncc7c6)CC[C@H]5C45CC[C@]3(C2)O5)COC1` (stereo partly drawn) [41B, β-3-methyl-3-oxetanamine], the GI50 in assay [1] (setting [5]) was determined as 8 nM; in assay [2] (setting [6]), 16 nM.

As to `C[C@]12CC=C3C=C4CC[C@H](N5CCC(F)(F)C5)C[C@]45CC[C@]3(O5)[C@@H]1CC[C@@H]2c1ccc2ccncc2c1` [37B, β-3,3-difluoropyrrolidine], the GI50 in assay [1] (setting [5]) was found to be 65 nM; in assay [2] (setting [6]) it was 200 nM.

On to `COCCN(C)[C@H]1CCC2=CC3=CC[C@]4(C)C(c5ccc6ccncc6c5)CC[C@H]4[C@@]34CC[C@]2(C1)O4` (stereo partly drawn) [27B, β-2-methoxyethylmethylamine], for which the results for the GI50 in assay [1] (setting [5]) and in assay [2] (setting [6]) were 7 nM and 10 nM, respectively.

Turning to `C[C@]12CC=C3C=C4CC[C@H](N5CCC6(COC6)C5)C[C@]45CCC3(O5)[C@@H]1CCC2c1ccc2ccncc2c1` (stereo partly drawn) [38B, β-2-oxa-6-azaspiro[3.4]octane], the GI50 in assay [1] (setting [5]) and in assay [2] (setting [6]) was 10 nM each time.

Take `CN(C)[C@H]1CCC2=CC3=CC[C@]4(C)[C@@H](C(=O)Nc5cccnc5)CC[C@H]4[C@@]34CCC2(C1)O4` [50B, β-dimethylamine amidepyridine]: the GI50 in assay [1] (setting [7]) and in assay [2] (setting [8]) was over 1000 nM each time.

Regarding `CC(C)N(C)[C@H]1CCC2=CC3=CC[C@]4(C)[C@@H](c5ccc6ccncc6c5)CC[C@H]4[C@@]34CC[C@]2(C1)O4` [33B, β-isopropylmethylamine], the GI50 came out at 22 nM in assay [1] (setting [5]) and 60 nM in assay [2] (setting [6]).

For `C[C@]12CC=C3C=C4CC[C@@H](N5CC(O)C5)C[C@]45CCC3(O5)[C@@H]1CC[C@@H]2c1ccc2ccncc2c1` [70A, α-hydroxyazetidine], the GI50 in assay [1] (setting [5]) is 7 nM; in assay [2] (setting [6]), 12 nM.

With `C[C@]12CC=C3C=C4CC[C@H](N5CC[C@H](F)C5)C[C@]45CC[C@]3(O5)[C@@H]1CC[C@@H]2c1ccc2ccncc2c1` [36B, β-(S)-3-fluoropyrrolidine], the GI50 in assay [1] (setting [5]) came to 19 nM; in assay [2] (setting [6]) it was 95 nM.

Consider `CN[C@H]1CCC2=CC3=CC[C@]4(C)C(c5ccc6ccncc6c5)CC[C@H]4C34CC[C@]2(C1)O4` (stereo partly drawn) [24B, β-monomethylamine], for which the GI50 in assay [1] (setting [5]) turned out to be 20 nM; in assay [2] (setting [6]), 50 nM.

Regarding `CC(C)(C)N[C@H]1CCC2=CC3=CC[C@]4(C)C(c5ccc6ccncc6c5)CC[C@H]4C34CC[C@]2(C1)O4` (stereo partly drawn) [43B, β-t-butylamine], the GI50 in assay [1] (setting [5]) is 95 nM; in assay [2] (setting [6]) it was 150 nM.

As for `CN(C)[C@H]1CCC2=CC3=CC[C@]4(C)C(C(=O)Nc5cccnc5)=CC[C@H]4[C@@]34CCC2(C1)O4` [49B, β-dimethylamine 17,18-unsaturated amidepyridine], the GI50 in assay [1] (setting [7]) and in assay [2] (setting [8]) was over 1000 nM each time.

As to `C[C@]12CC=C3C=C4CC[C@@H](O)CC45CC[C@]3(O5)[C@@H]1CC[C@@H]2c1ccc2ccncc2c1` [17A, α-alcohol], the results for the GI50 in assay [1] (setting [3]) and in assay [2] (setting [4]) were 1 nM and 6 nM, respectively.

Take `CNC(=O)O[C@@H]1CCC2=CC3=CC[C@]4(C)[C@@H](c5ccc6ccncc6c5)CC[C@H]4[C@@]34CCC2(C1)O4` [68A, α-monomethylcarbamate]: the GI50 was 120 nM in assay [1] (setting [3]) and 150 nM in assay [2] (setting [4]).

As to `C[C@]12CC=C3C=C4CC[C@H](N)CC45CC[C@]3(O5)[C@@H]1CC[C@@H]2c1ccc2ccncc2c1` [62B, β-primaryamine], the GI50 in assay [1] (setting [5]) turned out to be 20 nM; in assay [2] (setting [6]), 70 nM.

Consider `CN(CC(F)F)[C@H]1CCC2=CC3=CC[C@]4(C)C(c5ccc6ccncc6c5)CC[C@H]4[C@@]34CC[C@]2(C1)O4` (stereo partly drawn) [30B, β-2,2-difluoroethylmethylamine], for which the values for the GI50 in assay [1] (setting [5]) and in assay [2] (setting [6]) were 20 nM and 55 nM, respectively.

As for `CC1(O)CN([C@@H]2CCC3=CC4=CC[C@]5(C)[C@@H](c6ccc7ccncc7c6)CC[C@H]5C45CC[C@]3(C2)O5)C1` [69A, α-hydroxymethylazetidine], the GI50 was 9.5 nM in assay [1] (setting [5]) and 30 nM in assay [2] (setting [6]).
